In US20230192700A1, “PYRAZOLOPYRAZINES ACTING ON CANCERS VIA INHIBITION OF CDK12” (Bayer Aktiengesellschaft, priority 2020, published 2023) one finds IC50 data, which are given here for 17 molecules.

The target of experiment [1] is T1, CDK9/CyclinT1 (Homo sapiens, UniProt P50750).
T1 construct: Recombinant full-length His-tagged human CDK9 and CycT1; His-tag; purchased Life Technologies PV4131; host or cells: insect cells
The experiment can be described thus: CDK9/CycT1 high ATP kinase assay (TR-FRET). It is filed as biochemical. To be noted: 2 mM ATP (high ATP); median; read-out: CDK9/CyclinT1, 2 mM ATP (high ATP) IC50 - [mol/l] (median). Here is the method:
2.5 CDK9/CycT1 High ATP Kinase Assay
CDK9/CycT1 -inhibitory activity of compounds of the present invention at a high ATP concentration after preincubation of enzyme and test compounds was quantified employing the CDK9/CycT1 TR-FRET assay as described in the following paragraphs.
Recombinant full-length His-tagged human CDK9 and CycT1, expressed in insect cells and purified by Ni-NTA affinity chromatography, were purchased from Life Technologies (Cat. No PV4131). As substrate for the kinase reaction biotinylated peptide biotin-Ttds-YISPLKSPYKISEG (C-terminus in amide form) was used which can be purchased e.g. form the company JERINI peptide technologies (Berlin, Germany).
For the assay 50 nanoL of a 100 fold concentrated solution of the test compound in DMSO was pipetted into either a black low volume 384 well microtiter plate or a black 1536 well microtiter plate (both Greiner Bio-One, Frickenhausen, Germany), 2 microL of a solution of CDK9/CycT1 in aqueous assay buffer [50 millimol/L Tris/HCl pH 8.0, 10 millimol/L MgCl2, 1.0 millimol/L dithiothreitol, 0.1 millimol/L sodium ortho-vanadate, 0.01% (v/v) Nonidet-P40 (Sigma)] were added and the mixture was incubated for 15 min at 22° C. to allow pre-binding of the test compounds to the enzyme before the start of the kinase reaction. Then the kinase reaction was started by the addition of 3 microL of a solution of adenosine-tri-phosphate (ATP, 3.3 millimol/L=>final conc. in the 5 microL assay volume is 2 millimol/L) and substrate (1.25 micromol/L =>final conc. in the 5 microL assay volume is 0.75 micromol/L) in assay buffer and the resulting mixture was incubated for a reaction time of 25 min at 22° C. The concentration of CDK9/CycT1 was adjusted depending of the activity of the enzyme lot and was chosen appropriate to have the assay in the linear range, typical concentrations were in the range of 0.5 microg/mL. The reaction was stopped by the addition of 3 microL of a solution of TR-FRET detection reagents (0.33 micromol/L streptavidine-XL665 [Cisbio Bioassays, Codolet, France] and 1.67 nanomol/L anti-RB(pSer807/pSer811)-antibody from BD Pharmingen [#558389] and 2 nanomol/L LANCE EU-W1024 labeled anti-mouse IgG antibody [Perkin-Elmer, product no. AD0077]) in an aqueous EDTA-solution (167 millimol/L EDTA, 0.2% (w/v) bovine serum albumin in 100 millimol/L HEPES pH 7.5).
(§1) The resulting mixture was incubated 1 h at 22° C. to allow the formation of complex between the phosphorylated biotinylated peptide and the detection reagents. Subsequently the amount of phosphorylated substrate was evaluated by measurement of the resonance energy transfer from the Eu-chelate to the streptavidine-XL. Therefore, the fluorescence emissions at 620 nm and 665 nm after excitation at 350 nm was measured in a TR-FRET reader, e.g. a Pherastar (BMG Labtechnologies, Offenburg, Germany) or a Viewlux (Perkin-Elmer). The ratio of the emissions at 665 nm and at […] was taken as the measure for the amount of phosphorylated substrate. The data were normalised (enzyme reaction without inhibitor=0% inhibition, all other assay components but no enzyme=100% inhibition).
Background: TR-FRET usually uses a lanthanide donor and a delayed reading to cut background.

The target in experiment [2] is T2, CDK2/CyclinE (Homo sapiens, UniProt P24941).
T2 construct: GST; purchased ProQinase GmbH (Freiburg, Germany); host or cells: insect cells (Sf9)
The experiment in a line: CDK2/CycE kinase assay (TR-FRET). In kind it is biochemical. To be noted: 2 mM ATP (high ATP); median; read-out: CDK2/CyclinE, 2 mM ATP (high ATP) IC50 - [mol/l] (median).
Text: 2.4 CDK2/CycE Kinase Assay
CDK2/CycE-inhibitory activity of compounds of the present invention was quantified employing the CDK2/CycE TR-FRET assay as described in the following paragraphs.
Recombinant fusion proteins of GST and human CDK2 and of GST and human CycE, expressed in insect cells (Sf9) and purified by Glutathion-Sepharose affinity chromatography, were purchased from ProQinase GmbH (Freiburg, Germany). As substrate for the kinase reaction biotinylated peptide biotin-Ttds-YISPLKSPYKISEG (C-terminus in amid form) was used which can be purchased e.g. form the company JERINI peptide technologies (Berlin, Germany).
For the assay 50 nanoL of a 100 fold concentrated solution of the test compound in DMSO was pipetted into a black low volume 384 well microtiter plate or a black 1536 well microtiter plate (both Greiner Bio-One, Frickenhausen, Germany), 2 microL of a solution of CDK2/CycE in aqueous assay buffer [50 millimol/L Tris/HCl pH 8.0, 10 millimol/L MgCl2, 1.0 millimol/L dithiothreitol, 0.1 millimol/L sodium ortho-vanadate, 0.01% (v/v) Nonidet-P40 (Sigma)] were added and the mixture was incubated for 15 min at 22° C. to allow pre-binding of the test compounds to the enzyme before the start of the kinase reaction. Then the kinase reaction was started by the addition of 3 microL of a solution of adenosine-tri-phosphate (ATP, 3.33 millimol/L=>final conc. in the 5 microL assay volume is 2 millimol/L) and substrate (1.25 micromol/L=>final conc. in the 5 microL assay volume is 0.75 micromol/L) in assay buffer and the resulting mixture was incubated for a reaction time of 25 min at 22° C. The concentration of CDK2/CycE was adjusted depending of the activity of the enzyme lot and was chosen appropriate to have the assay in the linear range, typical concentrations were in the range of 10 ng/mL. The reaction was stopped by the addition of 3 microL of a solution of TR-FRET detection reagents (0.333 micromol/L streptavidine-XL665 [Cisbio Bioassays, Codolet, France] and 1.67 nanomol/L anti-RB(pSer807/pSer811)-antibody from BD Pharmingen [#558389] and 2 nanomol/L LANCE EU-W1024 labeled anti-mouse IgG antibody [Perkin-Elmer, product no. AD0077, as an alternative a Terbium-cryptate-labeled anti-mouse IgG antibody from Cisbio Bioassays can be used]) in an aqueous EDTA-solution (167 millimol/L EDTA, 0.2% (w/v) bovine serum albumin in 100 millimol/L HEPES pH 7.5).
as §1

T1 sequence (P50750 whole entry): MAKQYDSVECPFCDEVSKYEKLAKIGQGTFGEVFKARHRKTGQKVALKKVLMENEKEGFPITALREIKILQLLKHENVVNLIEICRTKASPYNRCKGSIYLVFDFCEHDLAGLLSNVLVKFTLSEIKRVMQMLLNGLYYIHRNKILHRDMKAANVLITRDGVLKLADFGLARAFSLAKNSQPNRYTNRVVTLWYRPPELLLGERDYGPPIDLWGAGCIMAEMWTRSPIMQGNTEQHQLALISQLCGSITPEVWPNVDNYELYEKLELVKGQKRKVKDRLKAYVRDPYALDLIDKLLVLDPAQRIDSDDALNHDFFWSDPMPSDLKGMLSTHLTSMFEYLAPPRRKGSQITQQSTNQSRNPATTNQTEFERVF
T1 sequence (O60563 whole entry partner): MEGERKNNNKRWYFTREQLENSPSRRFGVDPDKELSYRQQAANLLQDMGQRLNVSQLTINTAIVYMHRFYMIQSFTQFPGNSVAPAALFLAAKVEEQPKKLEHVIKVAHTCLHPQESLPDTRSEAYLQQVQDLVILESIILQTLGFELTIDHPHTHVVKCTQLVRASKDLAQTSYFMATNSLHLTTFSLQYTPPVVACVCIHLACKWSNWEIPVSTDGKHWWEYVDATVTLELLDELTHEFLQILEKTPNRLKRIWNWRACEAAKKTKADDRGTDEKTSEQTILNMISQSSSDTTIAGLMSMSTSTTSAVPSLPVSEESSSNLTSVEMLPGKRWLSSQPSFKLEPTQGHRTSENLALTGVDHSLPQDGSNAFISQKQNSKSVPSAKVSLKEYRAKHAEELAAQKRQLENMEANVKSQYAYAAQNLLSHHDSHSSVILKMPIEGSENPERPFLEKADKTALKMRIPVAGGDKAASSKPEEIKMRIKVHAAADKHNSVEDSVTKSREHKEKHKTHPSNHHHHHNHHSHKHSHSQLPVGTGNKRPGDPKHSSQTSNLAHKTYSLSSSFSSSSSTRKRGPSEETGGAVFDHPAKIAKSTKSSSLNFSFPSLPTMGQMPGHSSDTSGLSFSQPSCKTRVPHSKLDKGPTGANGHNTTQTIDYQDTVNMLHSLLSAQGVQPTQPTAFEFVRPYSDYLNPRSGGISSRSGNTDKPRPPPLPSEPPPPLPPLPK

In the case of `OC1(Cn2nc(NCc3nc4ccccc4[nH]3)c3ncc(C4CC4)nc32)CCC1` [Example 72, 1-[(3-{[(1H-benzimidazol-2-yl)methyl]amino}-6-cyclopropyl-1H-pyrazolo[3,4-b]pyrazin-1-yl)methyl]cyclobutan-1-ol], the IC50 in experiment [1] and in experiment [2] was above 20 µM in each case.

Regarding `CN1CCC(n2nc(NCc3nc4c(F)cccc4[nH]3)c3ncc(C4CC4)nc32)CC1` [Example 3, 6-cyclopropyl-N-[(4-fluoro-1H-benzimidazol-2-yl)methyl]-1-(1-methylpiperidin-4-yl)-1H-pyrazolo[3,4-b]pyrazin-3-amine], the IC50 in experiment [1] and in experiment [2] was above 20 µM each time.

For the molecule `CN1CCCC(n2nc(NCc3nc4ccccc4[nH]3)c3ncc(C4CC4)nc32)CC1` (racemic) [Example 34, (±)-N-[(1H-benzimidazol-2-yl)methyl]-6-cyclopropyl-1-(1-methylazepan-4-yl)-1H-pyrazolo[3,4-b]pyrazin-3-amine], the IC50 in experiment [1] and in experiment [2] was above 20 µM in each case.

`O[C@H]1C[C@H](n2nc(NCc3nc4ccccc4[nH]3)c3ncc(C4CC4)nc32)C1` [Example 43, trans-3-(3-{[(1H-benzimidazol-2-yl)methyl]amino}-6-cyclopropyl-1H-pyrazolo[3,4-b]pyrazin-1-yl)cyclobutan-1-ol]: the IC50 in experiment [1] and in experiment [2] was above 20 µM in each case.

For `OC1(Cn2nc(NCc3nc4ccccc4[nH]3)c3ncc(C4CC4)nc32)CCCC1` [Example 73, 1-[(3-{[(1H-benzimidazol-2-yl)methyl]amino}-6-cyclopropyl-1H-pyrazolo[3,4-b]pyrazin-1-yl)methyl]cyclopentan-1-ol], the IC50 in experiment [1] and in experiment [2] was above 20 µM throughout.

`Cc1cccc2[nH]c(CNc3nn(C4CCOCC4)c4nc(C5CC5)cnc34)nc12` [Example 33, 6-cyclopropyl-N-[(4-methyl-1H-benzimidazol-2-yl)methyl]-1-(oxan-4-yl)-1H-pyrazolo[3,4-b]pyrazin-3-amine]: the IC50 in experiment [1] and in experiment [2] was above 20 µM in each case.

As for `Cc1cccc2[nH]c(CNc3nn(C4CCN(C)CC4)c4nc(C5CC5)cnc34)nc12` [Example 8, 6-cyclopropyl-N-[(4-methyl-1H-benzimidazol-2-yl)methyl]-1-(1-methylpiperidin-4-yl)-1H-pyrazolo[3,4-b]pyrazin-3-amine], the IC50 in experiment [1] and in experiment [2] was above 20 µM in each case.

For the molecule `c1ccc2[nH]c(CNc3nn(C4CCOCC4)c4nc(C5CC5)cnc34)nc2c1` [Example 16, N-[(1H-benzimidazol-2-yl)methyl]-6-cyclopropyl-1-(oxan-4-yl)-1H-pyrazolo[3,4-b]pyrazin-3-amine], the IC50 in experiment [1] and in experiment [2] was above 20 µM throughout.

`COc1cccc2[nH]c(CNc3nn(C4CCOCC4)c4nc(C5CC5)cnc34)nc12` [Example 24, 6-cyclopropyl-N-[(4-methoxy-1H-benzimidazol-2-yl)methyl]-1-(oxan-4-yl)-1H-pyrazolo[3,4-b]pyrazin-3-amine]: the IC50 was above 20 µM in experiment [1] and 17.9 µM in experiment [2].

For `COCCC(C)n1nc(NCc2nc3ccccc3[nH]2)c2ncc(C3CC3)nc21` (single isomer, unassigned; (-)) [Example 58, (−)-N-[(1H-benzimidazol-2-yl)methyl]-6-cyclopropyl-1-[4-methoxybutan-2-yl]-1H-pyrazolo[3,4-b]pyrazin-3-amine], the IC50 in experiment [1] and in experiment [2] was above 20 µM throughout.

With `CC(CCN(C)C)n1nc(NCc2nc3ccccc3[nH]2)c2ncc(C3CC3)nc21` (single isomer, unassigned) [Example 64, (−) or(+)-N-[(1H-benzimidazol-2-yl)methyl]-6-cyclopropyl-1-[4-(dimethylamino)butan-2-yl]-1H-pyrazolo[3,4-b]pyrazin-3-amine], the IC50 in experiment [1] and in experiment [2] was above 20 µM throughout.

For `CC1CC(n2nc(NCc3nc4ccccc4[nH]3)c3ncc(C4CC4)nc32)CCO1` (racemic) [Example 44, (±)-cis/trans-N-[(1H-benzimidazol-2-yl)methyl]-6-cyclopropyl-1-(2-methyloxan-4-yl)-1H-pyrazolo[3,4-b]pyrazin-3-amine], the IC50 in experiment [1] and in experiment [2] was above 20 µM in each case.

Regarding `COCCCn1nc(NCc2nc3ccccc3[nH]2)c2ncc(C3CC3)nc21` [Example 61, N-[(1H-benzimidazol-2-yl)methyl]-6-cyclopropyl-1-(3-methoxypropyl)-1H-pyrazolo[3,4-b]pyrazin-3-amine], the IC50 in experiment [1] and in experiment [2] was above 20 µM throughout.

Turning to `COCCC(C)n1nc(NCc2nc3ccccc3[nH]2)c2ncc(C3CC3)nc21` (racemic) [Example 57, (±)-N-[(1H-benzimidazol-2-yl)methyl]-6-cyclopropyl-1-(4-methoxybutan-2-yl)-1H-pyrazolo[3,4-b]pyrazin-3-amine], the IC50 in experiment [1] and in experiment [2] was above 20 µM each time.

For the molecule `OC[C@H]1C[C@H](n2nc(NCc3nc4ccccc4[nH]3)c3ncc(C4CC4)nc32)C1` [Example 46, [trans-3-(3-{[(1H-benzimidazol-2-yl)methyl]amino}-6-cyclopropyl-1H-pyrazolo[3,4-b]pyrazin-1-yl)cyclobutyl]methanol], the IC50 in experiment [1] and in experiment [2] was above 20 µM each time.

Consider `CC(C)n1nc(NCc2nc3ccccc3[nH]2)c2ncc(C3CC3)nc21` [Example 14, N-[(1H-benzimidazol-2-yl)methyl]-6-cyclopropyl-1-(propan-2-yl)-1H-pyrazolo[3,4-b]pyrazin-3-amine], for which the IC50 in experiment [1] and in experiment [2] was above 20 µM each time.

Take `CC(C)(O)Cn1nc(NCc2nc3ccccc3[nH]2)c2ncc(C3CC3)nc21` [Example 69, 1-(3-{[(1H-benzimidazol-2-yl)methyl]amino}-6-cyclopropyl-1H-pyrazolo[3,4-b]pyrazin-1-yl)-2-methylpropan-2-ol]: the IC50 in experiment [1] and in experiment [2] was above 20 µM each time.
